The source of these data is patent US9545105B2, “1-(heterocyclic carbonyl) piperidines” (BAYER INTELLECTUAL PROPERTY GMBH, priority 2010, dated 2017).

The nature of series [1]: log P by HPLC on reversed-phase column (C 18), EEC Directive 79/831 Annex V.A8. Type of series: physicochemical. As to conditions: HPLC on reversed-phase column (C 18); 40° C.; 0.1% aqueous formic acid and acetonitrile; linear gradient 10% to 90% acetonitrile. The method, then:
In table 1, the log P values were determined in accordance with EEC Directive 79/831 Annex V.A8 by HPLC (High Performance Liquid Chromatography) on a reversed-phase column (C 18), using the method described below: Temperature: 40° C.; Mobile phases: 0.1% aqueous formic acid and acetonitrile; linear gradient from 10% acetonitrile to 90% acetonitrile. Calibration was carried out using unbranched alkan-2-ones (comprising 3 to 16 carbon atoms) with known log P values (determination of the log P values by the retention times using linear interpolation between two successive alkanones). lambda-max-values were determined using UV-spectra from 200 nm to 400 nm and the peak values of the chromatographic signals.

A further series relates to Alternaria solani. Briefly: In vivo preventive test on Alternaria solani (tomato). As to conditions: 500 ppm of active ingredient, evaluated 7 days after inoculation. The method, then: Solvent: 49 parts by weight of N,N-dimethylformamide Emulsifier: 1 part by weight of Alkylarylpolyglycolether To produce a suitable preparation of active compound, 1 part by weight of active compound is mixed with the stated amounts of solvent and emulsifier, and the concentrate is diluted with water to the desired concentration. To test for preventive activity, young plants are sprayed with the preparation of active compound at the stated rate of application. One day after this treatment, the plants are inoculated with an aqueous spore suspension of Alternaria solani. The plants remain for one day in an incubation cabinet at approximately 22° C. and a relative atmospheric humidity of 100%. Then the plants are placed in an incubation cabinet at approximately 20° C. and a relative atmospheric humidity of 96%. The test is evaluated 7 days after the inoculation. 0% means an efficacy which corresponds to that of the untreated control while an efficacy of 100% means that no disease is observed.

The subject of a further series is Pyrenophora teres. Put plainly: In vivo preventive test on Pyrenophora teres (barley). As to conditions: 500 ppm of active ingredient, evaluated 7-9 days after inoculation. The method, then:
Solvent: 49 parts by weight of N,N-dimethylformamide Emulsifier: 1 part by weight of alkylaryl polyglycol ether To produce a suitable preparation of active compound, 1 part by weight of active compound is mixed with the stated amounts of solvent and emulsifier, and the concentrate is diluted with water to the desired concentration. To test for preventive activity, young plants are sprayed with the preparation of active compound at the stated rate of application. One day after this treatment, the plants are inoculated with an aqueous spore suspension of Pyrenophora teres. The plants remain for 48 hours in an incubation cabinet at 22° C. and a relative atmospheric humidity of 100%. Then the plants are placed in a greenhouse at a temperature of approximately 20° C. and a relative atmospheric humidity of approximately 80%. The test is evaluated 7-9 days after the inoculation. 0% means an efficacy which corresponds to that of the untreated control while an efficacy of 100% means that no disease is observed.

Broadly, the logP is a log measure of how a compound divides between an organic and an aqueous phase. Read a high logP as a more lipophilic compound. For `Cn1nc(C(F)F)c(C(=O)N2CCCCC2Cc2ccccc2)c1F` (stereo not drawn) [Example 134], in series [1], the logP was 3.09. In addition, the Efficacy in the series with Alternaria solani and in the series on Pyrenophora teres was 100% each time.

`Cc1cccc(CC2CCCCN2C(=O)c2c(C(F)F)nn(C)c2F)c1` (stereo not drawn) [Example 144] returned a logP in series [1] of 3.44. For the same molecule, the Efficacy in the series with Alternaria solani and in the series on Pyrenophora teres was 100% throughout.

Molecule `Cn1nc(C(F)F)c(C(=O)N2CCCCC2CCOc2ccccc2-c2ccccc2)c1F` (stereo not drawn) [Example 187] returned a logP in series [1] of 4.21. The Efficacy in the series with Alternaria solani and in the series on Pyrenophora teres was 95% throughout.

As to `Cn1nc(C(F)F)c(C(=O)N2CCCCC2c2cccc(Oc3ccccc3)c2)c1Cl` (stereo not drawn) [Example 114], the logP in series [1] is recorded as 4.18. Moreover, the Efficacy turned out to be 90% in the series on Alternaria solani and 80% in the series on Pyrenophora teres.

`Cn1nc(C(F)F)c(C(=O)N2CCCCC2CCOc2ccc(Cl)cc2Cl)c1F` (stereo not drawn) [Example 185] yielded a logP in series [1] of 4.06. Further, the Efficacy in the series on Alternaria solani is reported as 100%; in the series on Pyrenophora teres, 95%.

Regarding `Cc1cc(C(=O)N2CCCCC2c2ccc3ccccc3c2)c(C)o1` (stereo not drawn) [Example 120], in series [1], the log partition coefficient (logP) came to 4.39. Also, the Efficacy turned out to be 80% with Alternaria solani and 70% in the series with Pyrenophora teres.

In the case of `Cc1ccc(OCC2CCCCN2C(=O)c2c(C(F)F)nn(C)c2Cl)cc1` (stereo not drawn) [Example 149], the lipophilicity (logP) in series [1] came to 3.55. For the same molecule, the Efficacy in the series with Alternaria solani and with Pyrenophora teres was 95% each time.

As to `Cc1nn(C)c(F)c1C(=O)N1CCCCC1Cc1ccccc1` (stereo not drawn) [Example 129], in series [1], the logP is on record as 2.54. The values for the Efficacy in the series with Alternaria solani and in the series with Pyrenophora teres were 95% and 100%, respectively.

In series [1], `Cn1nc(C(F)F)c(C(=S)N2CCCCC2CCc2ccccc2)c1F` (stereo not drawn) [Example 179] had a logP of 4.06. Besides, the Efficacy is 95% in the series on Alternaria solani and 100% with Pyrenophora teres.

Take `Cn1nc(C(F)F)c(C(=O)N2CCCCC2c2ccccc2Br)c1Cl` (stereo not drawn) [Example 90]: the logP in series [1] is on record as 3.55. Also, the results for the Efficacy with Alternaria solani and in the series on Pyrenophora teres were 90% and 95%, respectively.

For `CCc1nn(C)c(F)c1C(=O)N1CCCCC1c1ccc2c(c1)OCO2` (stereo not drawn) [Example 59], in series [1], the logP is 2.73. In addition, the Efficacy is recorded as 78% in the series with Alternaria solani and 70% in the series on Pyrenophora teres.

In series [1], `Cc1cc(C(=O)N2CCCCC2c2cccc(Br)c2)c(C)o1` (stereo not drawn) [Example 93] had a logP of 4.11. Besides, the results for the Efficacy in the series on Alternaria solani and with Pyrenophora teres were 90% and 95%, respectively.

`Cc1nc(C(F)F)c(C(=O)N2CCCCC2Cc2ccc(F)cc2)s1` (stereo not drawn) [Example 154] displayed a logP in series [1] of 3.21. For the same molecule, the results for the Efficacy in the series on Alternaria solani and in the series on Pyrenophora teres were 89% and 100%, respectively.

In series [1], `Cc1ccc(CC2CCCCN2C(=O)c2sc(C)nc2C(F)F)cc1` (stereo not drawn) [Example 148] yielded a lipophilicity (logP) of 3.59. Besides, the Efficacy in the series on Alternaria solani came to 94%; in the series with Pyrenophora teres, 95%.

Consider `Cn1nc(C(F)F)c(C(=O)N2CCCCC2c2cccc(Br)c2)c1Cl` (stereo not drawn) [Example 96], for which the logP in series [1] is listed as 3.71. Further, the Efficacy in the series on Alternaria solani and with Pyrenophora teres was 100% each time.

In series [1], `Cc1ccc(CC2CCCCN2C(=O)c2c(C(F)F)nn(C)c2F)cc1` (stereo not drawn) [Example 147] yielded a logP of 3.46. The Efficacy in the series with Alternaria solani and in the series with Pyrenophora teres was 100% throughout.

The molecule `Cn1nc(C(F)F)c(C(=O)N2CCCCC2CCOc2ccc3ccccc3c2)c1F` (stereo not drawn) [Example 191] displayed a log partition coefficient (logP) in series [1] of 3.92. The Efficacy with Alternaria solani and in the series on Pyrenophora teres was 100% throughout.

`CCc1nn(C)c(F)c1C(=O)N1CCCCC1c1cccc(Cl)c1Cl` (stereo not drawn) [Example 72]: the logP in series [1] is 3.62. The Efficacy in the series with Alternaria solani and in the series on Pyrenophora teres was 95% throughout.

Take `CC(c1ccccc1)C1CCCCN1C(=O)c1c(C(F)F)nn(C)c1Cl` (stereo not drawn) [Example 137]: the logP in series [1] amounted to 3.59. Also, the Efficacy in the series on Alternaria solani and in the series with Pyrenophora teres was 100% each time.

`Cn1nc(C(F)F)c(C(=O)N2CCCCC2COc2ccc3ccccc3c2)c1F` (stereo not drawn) [Example 173] displayed a logP in series [1] of 3.68. Moreover, the Efficacy in the series on Alternaria solani worked out at 100%; with Pyrenophora teres, 95%.

The molecule `Cn1nc(C(F)F)c(C(=O)N2CCCCC2c2ccc3c(c2)OCCO3)c1F` (stereo not drawn) [Example 65] returned a logP in series [1] of 2.75. The Efficacy was 90% with Alternaria solani and 100% in the series with Pyrenophora teres.

With `Cc1nn(C)c(F)c1C(=O)N1CCCCC1c1ccc(Br)cc1` (stereo not drawn) [Example 99], in series [1], the logP is given as 3.11. Moreover, the Efficacy with Alternaria solani is recorded as 90%; with Pyrenophora teres it was 100%.

On to `CC(c1ccccc1Cl)C1CCCCN1C(=O)c1c(C(F)F)nn(C)c1Cl` (stereo not drawn) [Example 164], for which, in series [1], the log partition coefficient (logP) is recorded as 4.06. Further, the figures for the Efficacy in the series on Alternaria solani and in the series with Pyrenophora teres were 89% and 100%, respectively.

On to `CCc1nn(C)c(F)c1C(=O)N1CCCCC1c1ccc(Br)s1` (stereo not drawn) [Example 125], for which, in series [1], the lipophilicity (logP) is recorded as 3.51. Besides, the Efficacy came to 90% with Alternaria solani and 80% in the series with Pyrenophora teres.

For `Cn1nc(C(F)F)c(C(=O)N2CCCCC2CCOc2ccc(-c3ccccc3)cc2)c1F` (stereo not drawn) [Example 189], the log partition coefficient (logP) in series [1] came out at 4.31. The Efficacy in the series with Alternaria solani is given as 100%; in the series on Pyrenophora teres, 95%.

Consider `Cn1nc(C(F)F)c(C(=O)N2CCCCC2c2ccccc2Cl)c1Cl` (stereo not drawn) [Example 40], for which the logP in series [1] is 3.48. For the same molecule, the Efficacy in the series on Alternaria solani and in the series on Pyrenophora teres was 95% throughout.

As to `Cn1nc(C(F)F)c(C(=O)N2CCCCC2c2ccc(Br)cc2)c1Cl` (stereo not drawn) [Example 103], the logP in series [1] was 3.78. The Efficacy in the series with Alternaria solani is reported as 80%; in the series with Pyrenophora teres it was 95%.

Molecule `Cn1nc(C(F)F)c(C(=O)N2CCCCC2c2ccc(Cl)cc2Cl)c1Cl` (stereo not drawn) [Example 80] displayed a logP in series [1] of 4.06. Moreover, the Efficacy in the series on Alternaria solani stood at 100%; with Pyrenophora teres, 95%.

As to `Cn1nc(C(F)F)c(C(=O)N2CCCCC2c2cccc(Cl)c2)c1Cl` (stereo not drawn) [Example 47], the logP in series [1] is given as 3.60. Further, the Efficacy in the series on Alternaria solani and with Pyrenophora teres was 100% in each case.

As to `Cn1nc(C(F)F)c(C(=S)N2CCCCC2c2ccc(Br)cc2)c1F` (stereo not drawn) [Example 105], in series [1], the logP was 4.29. The Efficacy in the series on Alternaria solani and with Pyrenophora teres was 100% in each case.

For the molecule `Cn1nc(C(F)F)c(C(=O)N2CCCCC2c2ccc3ccccc3c2)c1Cl` (stereo not drawn) [Example 121], the lipophilicity (logP) in series [1] is 3.87. Besides, the Efficacy with Alternaria solani is given as 80%; in the series with Pyrenophora teres, 90%.

In turn, `Cn1nc(C(F)F)c(C(=O)N2CCCCC2CCOc2ccc(Cl)cc2Cl)c1Cl` (stereo not drawn) [Example 184] gave a log partition coefficient (logP) in series [1] of 4.26. In addition, the Efficacy turned out to be 95% with Alternaria solani and 100% in the series on Pyrenophora teres.

Consider `COc1ccccc1CC1CCCCN1C(=O)c1c(C(F)F)nn(C)c1F` (stereo not drawn) [Example 157], for which, in series [1], the log partition coefficient (logP) is reported as 3.17. The Efficacy with Alternaria solani and in the series on Pyrenophora teres was 100% throughout.

In turn, `Cc1nn(C)c(F)c1C(=O)N1CCCCC1c1cccc(Oc2ccccc2)c1` (stereo not drawn) [Example 113] gave a lipophilicity (logP) in series [1] of 3.60. In addition, the Efficacy is 94% in the series on Alternaria solani and 90% in the series with Pyrenophora teres.

With `Cc1ccc(OCC2CCCCN2C(=O)c2c(C(F)F)nn(C)c2F)cc1` (stereo not drawn) [Example 150], the logP in series [1] amounted to 3.35. Also, the Efficacy with Alternaria solani and with Pyrenophora teres was 100% each time.

In turn, `Cn1nc(C(F)F)c(C(=O)N2CCCCC2COc2ccc3ccccc3c2)c1Cl` (stereo not drawn) [Example 172] registered a lipophilicity (logP) in series [1] of 3.87. In addition, the Efficacy was determined as 80% in the series with Alternaria solani and 90% in the series with Pyrenophora teres.

`Cc1cccc(CC2CCCCN2C(=O)c2sc(C)nc2C(F)F)c1` (stereo not drawn) [Example 145] returned a log partition coefficient (logP) in series [1] of 3.57. The Efficacy is on record as 75% with Alternaria solani and 80% in the series on Pyrenophora teres.
